Results on 9 molecules are retold here after PMC6407587, “Inhibition potential of phenolic constituents from the aerial parts of Tetrastigma hemsleyanum against soluble epoxide hydrolase and nitric oxide synthase” (Journal of Enzyme Inhibition and Medicinal Chemistry, 2019).

The target of data set [1] is T1, sEH (Homo sapiens, UniProt P34913).
T1 sequence (P34913 1-555): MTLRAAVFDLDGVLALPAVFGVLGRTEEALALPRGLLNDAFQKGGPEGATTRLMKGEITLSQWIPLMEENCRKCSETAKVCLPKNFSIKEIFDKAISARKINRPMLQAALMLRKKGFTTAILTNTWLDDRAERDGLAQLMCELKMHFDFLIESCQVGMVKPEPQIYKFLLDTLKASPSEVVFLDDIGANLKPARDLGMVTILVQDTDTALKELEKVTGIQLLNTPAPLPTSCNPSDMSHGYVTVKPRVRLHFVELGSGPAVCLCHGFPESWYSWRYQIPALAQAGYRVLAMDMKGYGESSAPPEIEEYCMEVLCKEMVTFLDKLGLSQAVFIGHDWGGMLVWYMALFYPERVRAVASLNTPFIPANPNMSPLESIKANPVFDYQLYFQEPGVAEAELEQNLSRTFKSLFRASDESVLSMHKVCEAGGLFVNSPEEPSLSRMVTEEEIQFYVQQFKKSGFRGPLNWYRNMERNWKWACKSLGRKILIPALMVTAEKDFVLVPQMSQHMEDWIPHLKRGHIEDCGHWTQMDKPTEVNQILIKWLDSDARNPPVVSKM
As to the kind of experiment: sEH inhibitory activity, fluorescence assay with PHOME substrate. The format is biochemical. The conditions noted are these: for IC50: PHOME substrate, dose-dependent response curve; for inhibition at 100 µM / Inhibition on sEH at 100 µM (%): 100 µM compound, tested three times.

Data set [2] addresses T1, sEH. Kind of data set: sEH binding mechanism, Dixon and Lineweaver-Burk plots at different substrate and inhibitor concentrations. The format is biochemical. The conditions noted are these: for Ki: Dixon plots; for Type of sEH inhibition: Dixon / Lineweaver-Burk plots.
Data set [3] concerns RAW 264.7 cells.
In data set [4] the test system is LPS-induced NO production in macrophage RAW 264.7 cells (iNOS). As to the kind of experiment: Inhibition of LPS-induced NO production in RAW 264.7 macrophages (Griess reaction, measure of iNOS activity).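 On all read-outs here: cells pretreated with compound for 2 h, then stimulated 24 h with LPS at 500 ng/ml, supernatant nitrite quantified by absorbance at 550 nm against a nitrite standard curve.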 The format is cell-based. The following applies: for inhibition at 50 µM / IC50: Mus musculus; for IC50: RAW264.7, LPS-stimulated RAW264.7 cells, means ± SE, n = 3. (In general: The Griess reaction detects nitrite, a stable product of nitric oxide.)

The subject of data set [5] is X-box binding protein 1. On the set-up: method as in PMID 26475664. The conditions noted are these: related to ulcerative colitis; cited from earlier work.
The mark [6] stands for this setting: 50 µM compound, LPS-stimulated RAW264.7 cells, read-out: Inhibition of NO production at 50 µM (%).
Setting [7] is: 50 µM compound, LPS-stimulated RAW264.7 cells.

Like-named read-outs stand apart in the source and are kept apart here.
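Wherever Cytotoxicity in RAW 264.7 cells (MTT) is given: viability gauged by mitochondrial reductase turning MTT into formazan, optical density read at 570 nm, with untreated control cells set as 100% viability.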

Broadly, the IC50 is the midpoint of a concentration-inhibition curve. One may read the Ki as a dissociation constant, usually derived from enzyme kinetics or from competition with a known ligand. A low value points to tighter binding. One may read the inhibition as the change of the read-out against control, counted positive when it falls. In turn, `COC(=O)C1(O)CC(O)C(OC(=O)C=Cc2ccc(O)c(O)c2)C(O)C1` (centres unmarked) [Compound 8] showed an IC50 in data set [1] of 9.4 ± 0.2 µM. The molecule further displayed a Ki in data set [2] of 13.7 µM. Further, the “Cytotoxicity in RAW 264.7 cells (MTT)” value in data set [3] is “did not exhibit significant cytotoxicity”. For the same molecule, in data set [4] (setting [6]), the inhibition at 50 µM stood at 25.2%.

In data set [1], `O=c1c(O)c(-c2ccc(O)cc2)oc2cc(O)cc(O)c12` [Compound 10, kaempferol] registered an inhibition at 100 µM of 58 ± 2% and an IC50 of 6.8 ± 2.4 µM. Also, in data set [2], the “Type of sEH inhibition” value is recorded as “Non-competitive” and the Ki came out at 18.6 µM. The “Cytotoxicity in RAW 264.7 cells (MTT)” value in data set [3] is given as “did not exhibit significant cytotoxicity”. In data set [4], this molecule returned a half-inhibitory concentration (IC50) of 15.6 ± 1.6 µM. For the same molecule, the inhibition at 50 µM in data set [4] (setting [6]) worked out at 93%.

In data set [1], `O=c1cc(-c2ccc(O)cc2)oc2cc(O)cc(O)c12` [Compound 12, apigenin] registered an inhibition at 100 µM of 92.4 ± 2% and an IC50 of 7.2 ± 0.3 µM. In data set [2], the “Type of sEH inhibition” value was “Non-competitive” and the affinity, expressed as Ki, was 24.4 µM. The “Cytotoxicity in RAW 264.7 cells (MTT)” value in data set [3] is on record as “did not exhibit significant cytotoxicity”. In data set [4], this molecule had an IC50 of 12.2 ± 0.1 µM. In addition, the inhibition at 50 µM in data set [4] (setting [6]) amounted to 98.9%.

On to `C[C@@H]1O[C@@H](OC[C@H]2O[C@@H](Oc3c(-c4ccc(O)c(O)c4)oc4cc(O)cc(O)c4c3=O)[C@H](O)[C@@H](O)[C@@H]2O)[C@H](O)[C@H](O)[C@H]1O` [Compound 16], for which, in data set [1], the “Inhibition on sEH at 100 µM (%)” value is recorded as 95.2 ± 0.2% and the IC50 stood at 6.2 ± 0.1 µM. Further, the “Type of sEH inhibition” value in data set [2] is listed as “non-competitive”. For the same molecule, in data set [3], the “Cytotoxicity in RAW 264.7 cells (MTT)” value is on record as “did not exhibit significant cytotoxicity”. Moreover, the “Inhibition of NO production at 50 µM (%)” value in data set [4] (setting [7]) came to 26.2%.

`CC(=O)O[C@H]1[C@H](OC[C@H]2O[C@@H](Oc3c(-c4ccc(O)c(O)c4)oc4cc(O)cc(O)c4c3=O)[C@H](O)[C@@H](O)[C@@H]2O)O[C@@H](C)[C@H](O)[C@H]1O` [Compound 17]: in data set [1], the “Inhibition on sEH at 100 µM (%)” value is reported as 83.8 ± 3.7% and half-maximal inhibition (IC50) required 9.5 ± 0.1 µM. For the same molecule, the “Type of sEH inhibition” value in data set [2] is reported as “non-competitive”. Moreover, in data set [3], the “Cytotoxicity in RAW 264.7 cells (MTT)” value is on record as “did not exhibit significant cytotoxicity”. In addition, in data set [4] (setting [7]), the “Inhibition of NO production at 50 µM (%)” value was 29.9%.

For `COc1cc(C2c3cc(O)c(OC)cc3CC(CO)C2COC2OC(C)C(O)C(O)C2O)ccc1O` (centres unmarked) [Compound 18], in data set [5], the “Transcriptional activation of X-box binding protein 1” value was “remarkable transcriptional activation”. Further, in data set [1], the “sEH inhibitory activity (in words)” value is “weak inhibitory activity” and at 100 µM the inhibition was 52.3 ± 2.6%. Also, in data set [3], the “Cytotoxicity in RAW 264.7 cells (MTT)” value is “did not exhibit significant cytotoxicity”. Moreover, the inhibition at 50 µM in data set [4] (setting [6]) was found to be 32.1%.

In the case of `O=c1ccc2cc(O)c(O)cc2o1` [Compound 19], the IC50 was found to be 4.5 ± 0.2 µM in data set [1] and 47.3 ± 6.9 µM in data set [4]. This molecule also returned a Ki in data set [2] of 10.2 µM. For the same molecule, the “Cytotoxicity in RAW 264.7 cells (MTT)” value in data set [3] is recorded as “did not exhibit significant cytotoxicity”. Moreover, the inhibition at 50 µM in data set [4] (setting [6]) turned out to be 50.1%.

As to `C[C@@H]1CC[C@]2(C(=O)O)CC[C@]3(C)C(=CC[C@@H]4[C@@]5(C)C[C@@H](O)[C@@H](O)C(C)(C)[C@@H]5CC[C@]43C)[C@@H]2[C@]1(C)O` [Compound 38], in data set [1], the inhibition at 100 µM was 39.5 ± 4.1%. In addition, the “Cytotoxicity in RAW 264.7 cells (MTT)” value in data set [3] was “did not exhibit significant cytotoxicity”. Moreover, the inhibition at 50 µM in data set [4] (setting [6]) came out at 8.9%.

As to `CC[C@H](/C=C/[C@@H](C)[C@H]1CC[C@H]2[C@@H]3CC=C4C[C@@H](O[C@@H]5O[C@H](CO)[C@@H](O)[C@H](O)[C@H]5O)CC[C@]4(C)[C@H]3CC[C@]12C)C(C)C` [Compound 39], in data set [1], the “Inhibition on sEH at 100 µM (%)” value was “N.I”. In data set [3], the “Cytotoxicity in RAW 264.7 cells (MTT)” value is given as “did not exhibit significant cytotoxicity”. The inhibition at 50 µM in data set [4] (RAW264.7, read-out: Inhibition of NO production at 50 µM (%)) was 20.3%.
